# According to patent US20240084237A1, “A DEVICE HAVING A SUPPORT STRUCTURE FOR CREATING A HOLLOW, THREE-DIMENSIONAL ORGANOIDS AND CULTURES” (The Trustees of Indiana University, priority 2021, published 2024):
# Test system: iMG incorporated into the hollow organoid culture
# Experiment: neural inflammation model: iMG incorporated into hollow (tubular) brain organoid culture, drug treatment
# Assay type: cell-based, human
# Settings: for response of iMG incorporated into the hollow organoid culture to external stimulation: recapitulating the in vivo phenotype and functions during neural inflammation, LPS 100 ng/mL 24 hours followed by ATP 2 mM 30 minutes, DAMGO 100 nM 24 hours
# Description: To differentiate WA01 cells into microglia, WA01 cells were plated onto Matrigel (Corning) coated 6-well plate at a density of 30-40 colonies per well. The WA01 cells were then differentiated into hematopoietic progenitor cells (HPC) using STEMdiff hematopoietic kit (Stemcell Technologies). The differentiated WA01 derived HPC was then further differentiated into induced microglia (iMG) cells using STEMdiff Microglia Differentiation kit (Stemcell Technologies).
# To treat microglia cultured in well plates or microglia embedded in hFO, lipopolysaccharide (LPS) (Sigma) is dosed at 100 ng/mL for 24 hours followed by Adenosine 5′-triphosphate (ATP) (Sigma) at a concentration of 2 mM for 30 minutes. Similarly, DAMGO was given at a concentration of 100 nM for 24 hours. For LY-2828360 (Cayman Chemicals) treatment, microglia treated with DAMGO for 24 hours was refreshed with a medium containing 100 nM LY-2828360 for an additional 24 hours.
# To visualize inflammasome activation inside microglia cells, we analyzed NLRP3/ASC colocalization by proximity ligation assay (PLA). Samples were subject to NLRP3/ASC staining following by colocalization PLA using the Duolink in situ red kit (Sigma). After the PLA labeling, samples were then additionally labeled by Iba1/MAP2 before coverslipped with Prolong gold anti-fade DAPI mounting medium (Thermo Fisher) and visualized under an inverted fluorescence microscope (Olympus IX-83).
# Conditioned medium of 24 hours (total volume 500 μL) from control conditions or drug-treated conditions were collected from microglia cultured in 24 well plates or incorporated inside tubular organoids. The medium was centrifuged at 2,000 g for 10 minutes to remove cell debris. 400 μL of supernatant was then aspirated and used for ELISA assays. Samples were assayed using ELISA plates for IL-1β (Tribioscience), IL-18 (Tribioscience), and TNF-α (Abcam). Each sample was tested in triplicates and read at 450 nm for absorbance.
Molecule,response of iMG incorporated into the hollow organoid culture to external stimulation,response of the neural inflammation model to treatment (therapeutics screening) (100 nM for additional 24 hours after DAMGO 24 hours)
C[C@@H](NC(=O)[C@@H](N)Cc1ccc(O)cc1)C(=O)NCC(=O)N(C)[C@@H](Cc1ccccc1)C(=O)NCCO [DAMGO],can respond,–
Cc1nc(N2CCN(C)CC2)c2nc(-c3ccccc3Cl)n(C3CCOCC3)c2n1 [LY282860],–,evident responses
lipopolysaccharide [LPS],can respond,–
